From patent publication US20240360177A1, “PEPTIDES WITH ANTIMICROBIAL ACTIVITIES” (priority 2021, published 2024)
≈ marks a conversion by molar mass, not a printed value. Where two headings read alike, the source gives them in different places. Starred links: 1 amine or outer side, 2 acyl side, 3 side chain; linkers in the order of their positions; H or OH if unused. Non-standard residues stand in square brackets, D forms with d. Residues, ends and D or L forms follow the SMILES beside them. NH(CH2)9CO = O=C(CCCCCCCCCN[*:1])[*:2]; Aoc = NCCCCCCCC(=O)O; βAla = NCCC(=O)O

What was measured:
[1] = tested on: Staphylococcus aureus ATCC 29213; assay type: cell-based
[2] = tested on: Escherichia coli ATCC 25922; assay type: cell-based
[3] = tested on: Pseudomonas aeruginosa ATCC 27853; assay type: cell-based
C. albicans = details: 24 h
C. glabrata = details: 24 h
C. parapsilosis = details: 24 h
C. krusei = details: 24 h
C. auris = details: 24 h
C. tropicalis = details: 24 h
C. dubliniensis = details: 24 h
C. neoformans = details: 72 h
C. gattii = details: 72 h
in vitro = details: human
Coccidioides species = details: N = 3 strains; 48-72 hrs; >50% inhibition
[4] = Acute toxicity in CD-1 mice; details: both sexes, mouse, in vivo
Method: Acute toxicity and subacute toxicity of ACPs were tested in CD-1 mice. In the acute toxicity study, groups of CD-1 male or female mice were administered single intravenous or intraperitoneal escalating doses (n=2-3 per dose) of the peptides dissolved in normal saline for injection or in phosphate buffered saline. The intravenous dose was administered via tail vein with a slow push over 15-20 seconds. Doses were escalated based on tolerability.

[5] = EC50 cytotoxicity in HepG2, intracellular ATP assay
[6] = single IP dose, read-out: Tolerated single intraperitoneal dose
[7] = single IV dose via tail vein, read-out: Tolerated single intravenous dose

SMILES | MIC C. albicans (C. albicans) [µg/mL] | MIC C. glabrata (C. glabrata) [µg/mL] | MIC C. parapsilosis (C. parapsilosis) [µg/mL] | MIC C. krusei (C. krusei) [µg/mL] | MIC C. auris (C. auris) [µg/mL] | MIC C. tropicalis (C. tropicalis) [µg/mL] | MIC C. dubliniensis (C. dubliniensis) [µg/mL] | MIC C. neoformans (C. neoformans) [µg/mL] | MIC C. gattii (C. gattii) [µg/mL] | MIC Range Fusarium spp. (Fusarium spp.; 48 h) [µg/mL] | EC50 (in vitro; [5]) [µg/mL] | MIC Range Scedosporium spp. (Scedosporium spp.; 72 h) [µg/mL] | other results
N=C(N)NCCC[C@@H](N)C(=O)N[C@@H](CCCNC(=N)N)C(=O)N[C@H](CCCNC(=N)N)C(=O)NCCC(=O)N[C@H](CCCNC(=N)N)C(=O)N[C@@H](CCCNC(=N)N)C(=O)N[C@H](CCCNC(=N)N)C(=O)NCCC(=O)N[C@H](CCCNC(=N)N)C(=O)N[C@@H](CCCNC(=N)N)C(=O)N[C@H](CCCNC(=N)N)C(=O)N[C@@H](CCCNC(=N)N)C(=O)NCCC(=O)O [SEQ ID NO: 17, rRr-(Apr)-rRr-(Apr)-rRrR-(Apr)] (H-[dR]R[dR][βAla][dR]R[dR][βAla][dR]R[dR]R[βAla]-OH) | 4 (≈ 2.23 µM) | >64 | 2 (≈ 1.12 µM) | 1 (≈ 0.558 µM) | >64 | 4 (≈ 2.23 µM) | 8 (≈ 4.46 µM) | 64 (≈ 35.7 µM) | 8 (≈ 4.46 µM) | 16 to 64 | > 300 |  | MIC Staphylococcus aureus [1]: >64 µg/mL; MIC Escherichia coli [2]: >64 µg/mL; MIC Pseudomonas aeruginosa [3]: >64 µg/mL
CC[C@@H]([C@H](C)O)n1ncn(-c2ccc(N3CCN(c4ccc(OC[C@@H]5CO[C@@](Cn6cncn6)(c6ccc(F)cc6F)C5)cc4)CC3)cc2)c1=O [POS, posaconazole, reference compound] |  |  |  |  |  |  |  |  |  |  |  |  | MIC Range Rhizopus arrhizus (Rhizopus arrhizus; N = 3 strains, 24 hrs): 0.12 to 0.25 µg/mL; MIC Range Paecilomyces variotii (Paecilomyces variotii; N = 1 strain, 48 hrs): ≤0.03 µg/mL
N=C(N)NCCC[C@@H](N)C(=O)N[C@@H](CCCNC(=N)N)C(=O)N[C@H](CCCNC(=N)N)C(=O)NCC(=O)N[C@H](CCCNC(=N)N)C(=O)N[C@@H](CCCNC(=N)N)C(=O)N[C@H](CCCNC(=N)N)C(=O)NCC(=O)N[C@H](CCCNC(=N)N)C(=O)N[C@@H](CCCNC(=N)N)C(=O)N[C@H](CCCNC(=N)N)C(=O)N[C@@H](CCCNC(=N)N)C(=O)NCC(=O)N[C@H](CCCNC(=N)N)C(=O)N[C@@H](CCCNC(=N)N)C(=O)N[C@H](CCCNC(=N)N)C(=O)N[C@@H](CCCNC(=N)N)C(N)=O [SEQ ID NO: 4, rRr-G-rRr-G-rRrR-G-rRrR-NH2] (H-[dR]R[dR]G[dR]R[dR]G[dR]R[dR]RG[dR]R[dR]R-NH2) | 0.5 (≈ 0.211 µM) | 0.25 (≈ 0.105 µM) | 0.25 (≈ 0.105 µM) | 0.5 (≈ 0.211 µM) | 8 (≈ 3.37 µM) | 0.25 (≈ 0.105 µM) | 0.25 (≈ 0.105 µM) | 0.25 (≈ 0.105 µM) | 0.5 (≈ 0.211 µM) | 0.06 to 8 | > 300 | ≤0.12 | MIC Range Coccidioides species (Coccidioides species): 0.25 to 0.5 µg/mL; MIC Range Lomentospora prolificans (Lomentospora prolificans): ≤0.12 µg/mL; MIC Range Rhizopus arrhizus (Rhizopus arrhizus; 24 h): 0.5 to 8 µg/mL; MIC Range Paecilomyces variotii (Paecilomyces variotii; 48 h): 0.25 µg/mL (≈ 0.105 µM)
N=C(N)NCCC[C@@H](N)C(=O)N[C@@H](CCCNC(=N)N)C(=O)N[C@H](CCCNC(=N)N)C(=O)NCC(=O)N[C@H](CCCNC(=N)N)C(=O)N[C@@H](CCCNC(=N)N)C(=O)N[C@H](CCCNC(=N)N)C(=O)NCC(=O)N[C@H](CCCNC(=N)N)C(=O)N[C@@H](CCCNC(=N)N)C(=O)N[C@H](CCCNC(=N)N)C(=O)N[C@@H](CCCNC(=N)N)C(=O)NCC(=O)N[C@H](CCCNC(=N)N)C(=O)N[C@@H](CCCNC(=N)N)C(=O)N[C@H](CCCNC(=N)N)C(=O)N[C@@H](CCCNC(=N)N)C(=O)O [SEQ ID NO: 3, rRr-G-rRr-G-rRrR-G-rRrR] (H-[dR]R[dR]G[dR]R[dR]G[dR]R[dR]RG[dR]R[dR]R-OH) | 0.5 (≈ 0.21 µM) | 0.25 (≈ 0.105 µM) | 0.25 (≈ 0.105 µM) | 1 (≈ 0.421 µM) | 4 (≈ 1.68 µM) | 0.25 (≈ 0.105 µM) | 0.25 (≈ 0.105 µM) | 0.5 (≈ 0.21 µM) | 0.5 (≈ 0.21 µM) | 0.12 to 0.5 | > 300 | ≤0.12 | MIC Range Coccidioides species (Coccidioides species): 0.25 to 0.5 µg/mL; MIC Range Lomentospora prolificans (Lomentospora prolificans): ≤0.12 µg/mL; MIC Range Rhizopus arrhizus (Rhizopus arrhizus; 24 h): 1 to 8 µg/mL; MIC Range Paecilomyces variotii (Paecilomyces variotii; 48 h): 0.25 µg/mL (≈ 0.105 µM); MIC50 against Candida spp. (Candida spp.): 0.5 µg/mL (≈ 0.21 µM); MIC90 against Candida spp. (Candida spp.): 4 µg/mL (≈ 1.68 µM); EC50 (in vitro; EC50 cytotoxicity in HepG2 cells (50% cell viability)): > 300 µg/mL
N=C(N)NCCC[C@@H](N)C(=O)N[C@@H](CCCNC(=N)N)C(=O)N[C@H](CCCNC(=N)N)C(=O)NCCCCCCCCCC(=O)N[C@H](CCCNC(=N)N)C(=O)N[C@@H](CCCNC(=N)N)C(=O)N[C@H](CCCNC(=N)N)C(=O)NCCCCCCCC(=O)N[C@H](CCCNC(=N)N)C(=O)N[C@@H](CCCNC(=N)N)C(=O)N[C@H](CCCNC(=N)N)C(=O)N[C@@H](CCCNC(=N)N)C(=O)NCCCCCCCC(=O)N[C@H](CCCNC(=N)N)C(=O)N[C@@H](CCCNC(=N)N)C(=O)N[C@H](CCCNC(=N)N)C(=O)N[C@@H](CCCNC(=N)N)C(N)=O [SEQ ID NO: 33, rRr-(Ada)-rRr-(Aoa)-rRrR-(Aoa)-rRrR-NH2] (H-[dR]R[dR][NH(CH2)9CO][dR]R[dR][Aoc][dR]R[dR]R[Aoc][dR]R[dR]R-NH2) | 1 (≈ 0.377 µM) | 0.5 (≈ 0.188 µM) | 0.5 (≈ 0.188 µM) | 0.5 (≈ 0.188 µM) | 0.5 (≈ 0.188 µM) | 0.5 (≈ 0.188 µM) | 0.25 (≈ 0.0941 µM) | 0.25 (≈ 0.0941 µM) | 0.5 (≈ 0.188 µM) | 0.25 to 0.5 | > 300 | 0.25 (≈ 0.0941 µM) | MIC Staphylococcus aureus [1]: 16 µg/mL (≈ 6.03 µM); MIC Escherichia coli [2]: 16 µg/mL (≈ 6.03 µM); MIC Pseudomonas aeruginosa [3]: 32 µg/mL (≈ 12.1 µM); MTD [4, 6]: 10 to 15 mg/kg; MTD [4, 7]: 5 to 7.5 mg/kg
C[C@@H](c1ncncc1F)[C@](O)(Cn1cncn1)c1ccc(F)cc1F [VOR, voriconazole, reference compound] |  |  |  |  |  |  |  |  |  |  |  |  | MIC Range Fusarium spp. (Fusarium spp.; N = 3 strains, 48 hrs): 4 to 16 µg/mL; MIC Range Scedosporium spp. (Scedosporium spp.; N = 2 strains, 72 hrs): 1 to 2 µg/mL; MIC Range Lomentospora prolificans (Lomentospora prolificans; N = 1 strain): 16 µg/mL (≈ 45.8 µM); MIC Range Paecilomyces variotii (Paecilomyces variotii; N = 1 strain, 48 hrs): 0.12 µg/mL (≈ 0.344 µM)
N=C(N)NCCC[C@@H](N)C(=O)N[C@H](CCCNC(=N)N)C(=O)N[C@H](CCCNC(=N)N)C(=O)NCCC(=O)N[C@H](CCCNC(=N)N)C(=O)N[C@H](CCCNC(=N)N)C(=O)N[C@H](CCCNC(=N)N)C(=O)NCCC(=O)N[C@H](CCCNC(=N)N)C(=O)N[C@H](CCCNC(=N)N)C(=O)N[C@H](CCCNC(=N)N)C(=O)N[C@H](CCCNC(=N)N)C(=O)NCCC(=O)N[C@H](CCCNC(=N)N)C(=O)N[C@H](CCCNC(=N)N)C(=O)N[C@H](CCCNC(=N)N)C(=O)N[C@H](CCCNC(=N)N)C(N)=O [SEQ ID NO: 14, rrr-(Apr)-rrr-(Apr)-rrrr-(Apr)-rrrr-NH2] (H-[dR][dR][dR][βAla][dR][dR][dR][βAla][dR][dR][dR][dR][βAla][dR][dR][dR][dR]-NH2) | 1 (≈ 0.414 µM) | 0.5 (≈ 0.207 µM) | 0.12 (≈ 0.0497 µM) | 0.5 (≈ 0.207 µM) | 0.5 (≈ 0.207 µM) | 0.25 (≈ 0.103 µM) | 0.5 (≈ 0.207 µM) | 0.5 (≈ 0.207 µM) | 0.25 (≈ 0.103 µM) | 0.12 to 0.25 | > 300 | 0.25 (≈ 0.103 µM) | MTD [4, 6]: 10 to 15 mg/kg; MTD [4, 7]: 5 to 7.5 mg/kg; MIC50 Candida species (Candida spp.): 0.5 µg/mL (≈ 0.207 µM); MIC90 Candida species (Candida spp.): 2 µg/mL (≈ 0.828 µM)
N=C(N)NCCC[C@H](NC(=O)[C@@H](CCCNC(=N)N)NC(=O)[C@H](CCCNC(=N)N)NC(=O)[C@@H](CCCNC(=N)N)NC(=O)[C@@H]1CCCN1C(=O)[C@H](CCCNC(=N)N)NC(=O)[C@@H](CCCNC(=N)N)NC(=O)[C@H](CCCNC(=N)N)NC(=O)[C@@H](CCCNC(=N)N)NC(=O)[C@@H]1CCCN1C(=O)[C@@H](CCCNC(=N)N)NC(=O)[C@H](CCCNC(=N)N)NC(=O)[C@@H](CCCNC(=N)N)NC(=O)[C@@H]1CCCN1C(=O)[C@@H](CCCNC(=N)N)NC(=O)[C@H](CCCNC(=N)N)NC(=O)[C@@H](CCCNC(=N)N)NC(=O)[C@@H](N)CCCNC(=N)N)C(N)=O [SEQ ID NO: 63, RrRr-P-rRr-P-rRrR-P-rRrR-NH2] (H-R[dR]R[dR]P[dR]R[dR]P[dR]R[dR]RP[dR]R[dR]R-NH2) | 0.5 (≈ 0.189 µM) | 0.5 (≈ 0.189 µM) | 0.5 (≈ 0.189 µM) | 0.5 (≈ 0.189 µM) | 0.5 (≈ 0.189 µM) | 0.5 (≈ 0.189 µM) | 0.5 (≈ 0.189 µM) |  |  |  | > 300 |  | Activity at 24 h MIC50 against Candida spp. (Candida spp.; 24 h): 0.5 µg/mL; Activity at 24 h MIC90 against Candida spp. (Candida spp.; 24 h): 1 µg/mL; Activity at 48 h MIC50 against Candida spp. (Candida spp.; 48 h): 1 µg/mL; Activity at 48 h MIC90 against Candida spp. (Candida spp.; 48 h): 2 µg/mL
